Patent publication US11781101B2, “3D-printed models of biological microenvironments” (Regents of the University of Minnesota, priority 2018, dated 2023)

Test system: HUVEC-lined conduit
Conditions: laser-triggered release of VEGF from capsules on one side of conduit
Text: To mimic the beginning of a metastatic cascade in the context of cell types relevant to the tumor microenvironment, a vascularized 3D-printed culture chamber was configured to provide spatiotemporal control over both tumor cell invasion and angiogenesis as illustrated in FIG. 28. The angiogenic mediator VEGF was introduced to promote and direct the formation of a vascular network from a pre-existing uniaxial conduit.

VEGF
endothelial sprouting from the conduit: numerous endothelial cells sprouted from the conduit
